Laboratory results published in patent US20060004029A1, “Nitrogen-containing aromatic derivatives” (priority 2003, published 2006).

Tests used:
[1] = tested on: Human Umbilical Vein Endothelial Cells (HUVECs); assay: Inhibition against sandwich tube formation by vascular endothelial cells, VEGF-stimulated; format: cell-based; settings: HUVEC, 25 ng/ml VEGF and 10 ng/ml EGF, 4th day after addition
Method: Human Umbilical Vein Endothelial Cells (HUVECs) were isolated according to a reported method (Shinseikagaku Jikken Koza [New Biochemistry Experiment Lectures], “Saibo Baiyo Gijutsu” [Cell Culturing Techniques], p. 197-202), • and were cultured in a 5% CO2 incubator (37° C.) using EGM-2 medium (purchased from Clonetics Corp.) until the cells reached confluency.
An ice-cooled mixture of collagen: 5×RPMI 1640: reconstitution buffer (all purchased from Nitta Gelatin, Inc.) at 7:2:1 was dispensed at 0.4 ml into each well of a 24-well plate. After the solution was gelled by being stationed for 40 minutes in a 5% CO2 incubator (37° C.), HUVEC cell suspension was added at 0.4 ml to each well (using 1 to 1.2×10^5 cells, though the numbers of cells differ slightly according to the HUVEC lot), the HUVEC cell suspension being in human endothelial serum free medium (SFM, purchased from GIBCO BRL) containing added angiogenesis factors [20 ng/ml FGF2 (purchased from GIBCO BRL) and 10 ng/ml EGF (purchased from GIBCO BRL), or 25 ng/ml VEGF (purchased from Wako Pure Chemical Industries Co., Ltd.) and 10 ng/ml EGF, or 30 ng/ml HGF (purchased from R&D Co.) and 10 ng/ml EGF], and cultured overnight in a 5% CO2 incubator (37° C.). On the following day, the medium on the upper layer was aspirated off, and then 0.4 ml of an ice-cooled mixture of collagen: 5×RPMI 1640: reconstitution buffer (all purchased from Nitta Gelatin, Inc.) at 7:2:1 was superposed into each well prior to stationing for 4 hours in a 5% CO2 incubator (37° C.) for gelling. After adding 1.5 ml of an SFM solution containing each of the aforementioned angiogenesis factors and a diluted test substance onto the upper layer, culturing was performed in a 5% CO2 incubator (37° C.). Upon aspirating off the culture supernatant in each well on the 4th day after addition of the test substance, 0.4 ml of a 3.3 mg/ml MTT solution dissolved in PBS (purchased from Sigma Corp.) was added to each well and culturing was performed for approximately 2 hours in a 5% CO2 incubator (37° C.). The tubes formed in the collagen gel of each well were stained by MTT, the tube images were loaded into a computer (Macintosh), and the total length of the tubes was determined by image analysis software “MacScope” (purchased from Mitani Corp.). The ratio of the total length of the tubes formed in the well containing the test substance with respect to the total length of the tubes formed in the well containing no test substance was expressed as a percentage, and the concentration of each test substance required for 50% inhibition of tube formation (IC50) was determined from the ratio value.

[2] = tested on: KP-1/VEGF human pancreatic cancer cells; assay: In vivo angiogenesis-inducing activity using mouse dorsal air sac model; settings: oral, once a day, C57BL/6N female mice, 4th day
Method: PCR was conducted using a human placenta cDNA library (Toyobo Co., Ltd.) as the template and the SEQ ID NO:1 (5′[…]3′) and SEQ ID NO:2 (5′[…]3′) of VEGF as primers. After completion of the PCR reaction, the 5′ ends were phosphorylated and an approximately 600 bp DNA band was separated by 1.2% agarose gel electrophoresis. After polymerization by self-ligation, the cDNA was cut with EcoRI and BamHI and inserted into the EcoRI and BamHI sites of vector pUC19. This was used to transform E. coli JM83, and plasmids were recovered from the transformed clones. A VEGF cDNA fragment was cut out of the plasmids with HindIII and EcoRI and then inserted into pIRES2-rsGFP vector to yield pIRES2-rsGFP/VEGF for protein expression.
After overnight culturing of KP-1 human pancreatic cancer cells (3×10^6 cells) with 10% FCS-containing RPMI 1640 medium, an Effectene Transfection Reagent Kit (Qiagen) was used for introduction of 3 μg of pIRES2-rsGFP/VEGF into the KP-1 cells. After culturing in 10% FCS-containing RPMI 1640 medium containing 600 μg/ml of Geneticin, drug-resistant cells were selected. Furthermore, GFP high-expressing cells were collected by cell sorter (Becton Dickinson) as VEGF high-expressing KP-1 cells (KP-1/VEGF).
The KP-1/VEGF cells were prepared to 5×10^5 cells/ml, and 0.5 ml thereof was dispensed into each well of a 24-well plate and cultured at 37° C. for 24 hours. The culture supernatants were collected and the VEGF levels thereof measured using a VEGF measuring kit (IBL Co., Ltd.) for confirmation of high expression.
Millipore rings (Nihon Millipore) were sealed with 0.45 μm Durapore filter membranes (Nihon Millipore) to create chambers. KP-1/VEGF human pancreatic cancer cells (3×10^6) suspended in 0.17 ml of collagen gel were injected into each chamber through the injection port, and the chambers were sealed. Approximately 10 ml of air was then injected in the dorsal skin of 6-week-old C57BL/6N female mice under anesthesia to produce pouches, and the prepared chambers were transplanted therein. About 6 hours after completing transplantation, a test substance suspended in 0.5% methyl cellulose was orally administered (0.1 ml/10 g body weight), and this was continued once a day for the next 4 days.
On the 4th day after transplanting the chambers, 0.2 ml of ^51Cr (Amersham Pharmacia)-labeled mouse erythrocytes (2.5×10^6 cpm/ml) were injected through the caudal veins of each of the mice with the transplanted chambers. After a prescribed period, the skin in contact with the chamber was excised and frozen, the section in direct contact with the chamber was precisely cut off, and the radioactivity was measured with a Y-counter. The blood volume was calculated from the radioactivity and used as an index of the in vivo angiogenesis-inducing activity. The angiogenesis volume was recorded as this measured blood volume minus the blood volume obtained with transplantation of a chamber containing only collagen gel. The experiment was conducted using 10 mice in the control (solvent-administered) group and 5 mice in each compound-administered group.

Row | SMILES | IC50 [1] [nM] | proportion of the angiogenesis amount after administering test substance to that of control ([2]; 30 mg/kg/day) [%] | proportion of the angiogenesis amount after administering test substance to that of control ([2]; 100 mg/kg/day) [%]
1 | CNC(=O)n1ccc2cc(Oc3ccnc(NC(=O)N4CCC(O)CC4)c3)ccc21 [Example 39, N1-Methyl-5-(2-((4-hydroxypiperidino)carbonyl)amino-4-pyridyl)oxy-1H-1-indolecarboxamide] | 5.1 |  | 
2 | CNC(=O)n1ccc2cc(Oc3ccnc(NC(=O)N4CCC(C)(O)CC4)c3)ccc21 [Example 41, 5-(2-(((4-Hydroxy-4-methylpiperidin-1-yl)carbonyl)amino)pyridin-4-yloxy)-1H-1-indole-1-carboxylic acid methylamide] | 2.1 |  | 
3 | CNC(=O)n1ccc2cc(Oc3ccnc(NC(=O)N4CCC(N5CCCC5)CC4)c3)ccc21 [Example 46, N1-Methyl-5-(2-(((4-(pyrrolidin-1-yl)piperidin-1-yl)carbonyl)amino)pyridin-4-yloxy)-1H-1-indolecarboxamide] | 7 | 59.9 | 43.7
4 | CNC(=O)n1ccc2cc(Oc3ccnc(NC(=O)N4CCC(N5CCCCC5)CC4)c3)ccc21 [Example 47, N1-Methyl-5-(2-(((4-(piperidin-1-yl)piperidin-1-yl)carbonyl)amino)pyridin-4-yloxy)-1H-1-indolecarboxamide] | 5.8 | 87.4 | 39.5
5 | CNC(=O)n1ccc2cc(Oc3ccnc(NC(=O)N4CCOCC4)c3)ccc21 [Example 53, N4-(4-(1-(Methylamino)carbonyl-1H-5-indolyl)oxy-2-pyridyl)-4-morpholinecarboxamide] | 6.7 | 43.3 | 44.4
